Test results as given in patent US11208377B2, “3,4-disubstituted 3-cyclobutene-1,2-diones and use thereof” (ALLERGAN, INC., priority 2017, dated 2021).

Biological target: human CCR6 (Homo sapiens (Human), UniProt P51684)
Assay: Calcium activity assay on the FLIPR Tetra in HEK-Gqi5 cells stably expressing human CCR6 (MIP3α as positive control agonist)
Format: cell-based
Procedure: HEK-Gqi5 cells stably expressing human CCR6 were cultured in DMEM high glucose, 10% FBS, 1% PSA, 400 ug/ml geneticin and 50 ug/ml hygromycin. Appropriate positive control chemokine (MIP3α) was used as the positive control agonist for screening compound-induced calcium activity assayed on the FLIPR^Tetra. The drug plates were prepared in 384-well microplates using the EP3 and the MultiPROBE robotic liquid handling systems. Compounds disclosed herein were tested for CCR6 activity.

Sequence of human CCR6 (P51684 whole entry): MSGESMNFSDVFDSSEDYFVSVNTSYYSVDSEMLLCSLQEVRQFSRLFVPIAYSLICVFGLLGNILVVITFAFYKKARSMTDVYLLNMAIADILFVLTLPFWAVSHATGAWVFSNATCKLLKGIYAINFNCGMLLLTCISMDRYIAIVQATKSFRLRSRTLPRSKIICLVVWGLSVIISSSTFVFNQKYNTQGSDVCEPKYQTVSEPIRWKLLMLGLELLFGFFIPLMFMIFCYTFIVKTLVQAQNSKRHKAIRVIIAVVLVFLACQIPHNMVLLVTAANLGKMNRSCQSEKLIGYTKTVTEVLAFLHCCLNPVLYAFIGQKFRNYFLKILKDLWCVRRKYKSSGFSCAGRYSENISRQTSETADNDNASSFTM

CCR6 % Antagonism [%] | IC50 [nM] | Compound
98 | 31 | CN1CCN(S(=O)(=O)c2c(Cl)ccc(Nc3c(NC4c5ccoc5CCC4(C)C)c(=O)c3=O)c2O)CC1 (stereo not shown) [Compound 49, 3-((4-chloro-2-hydroxy-3-((4-methylpiperazin-1-yl)sulfonyl)phenyl)amino)-4-((5,5-dimethyl-4,5,6,7-tetrahydrobenzofuran-4-yl)amino)cyclobut-3-ene-1,2-dione]
95 | 46 | CCC(C)(Nc1c(Nc2ccc(Cl)c(C(=O)N(C)C)c2O)c(=O)c1=O)c1ccccc1 (stereo not shown) [Compound 72, 6-chloro-3-((3,4-dioxo-2-((2-phenylbutan-2-yl)amino)cyclobut-1-en-1-yl)amino)-2-hydroxy-N,N-dimethylbenzamide]
